Read-outs that look alike come from different tables or passages of the source.
How the values were obtained:
recombinant human HDAC8 = target: T1, recombinant human HDAC8 (Homo sapiens, UniProt Q9BY41); assay: HDAC8 inhibition: recombinant HDAC8 fluorometric assay; type: biochemical
T1 construct: made in house; host or cells: insect cells
T1 sequence (Q9BY41 1-377): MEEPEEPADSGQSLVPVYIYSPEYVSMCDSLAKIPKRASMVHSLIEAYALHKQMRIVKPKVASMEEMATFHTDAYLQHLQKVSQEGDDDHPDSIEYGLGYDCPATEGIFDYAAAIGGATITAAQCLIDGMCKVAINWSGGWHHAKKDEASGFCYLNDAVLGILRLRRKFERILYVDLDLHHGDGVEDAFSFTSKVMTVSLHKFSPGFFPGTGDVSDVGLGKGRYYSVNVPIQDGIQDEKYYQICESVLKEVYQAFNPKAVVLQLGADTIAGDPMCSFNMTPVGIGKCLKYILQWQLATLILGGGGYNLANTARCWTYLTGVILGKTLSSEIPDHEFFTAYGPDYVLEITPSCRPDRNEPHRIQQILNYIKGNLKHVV
Method: HDAC8 Inhibition by Novel Compounds: Recombinant HDAC8 Fluorometric Assay.
A competitive inhibitory assay of HDAC8 was carried out by using recombinant HDAC8 and a commercial substrate Ac-Arg-His-Lys-Lys(ε-acetyl)-AMC.
Compounds were tested for their ability to inhibit histone deacetylase 8 using an in vitro deacetylation assay. The enzyme source for this assay was recombinant human HDAC8 protein expressed and purified from insect cells. […] The substrate consisted of a commercial product Ac-Arg-His-Lys-Lys(ε-acetyl)-AMC (substrate is available from Cayman Chemical). […] 1 μl of half-log diluted compounds were added into wells and incubated for 15 min at rt. After that, 8 μl of substrate solution was transferred to the wells and incubated for 30 min at rt. After deacetylation of the substrate by incubation with HDAC8 enzyme, subsequent exposure to a developing reagent produced a fluorophore that was directly proportional to the level of deacetylation. […] The fluorescence signal was measured by a FlexStation3 plate reader (excitation wave length 340-360 nm; emission wave length 440-465 nm). The HDAC8 IC50 was calculated after normalization and curve fitting using XLfit4.0 software. Inhibition %=[Mean(top)−signal(sample)]×100/[Mean(top)−Mean(bottom)].

HDAC6 = target: T2, HDAC6 (Homo sapiens, UniProt Q9UBN7); assay: Tubulin acetylation cytoblot assay (A549 cells); type: cell-based; settings: 17-18 h incubation, tubulin acetylation as marker of HDAC6 inhibition, read-out: Tub-Ac EC50
T2 construct: endogenous in cells; host or cells: A549 cells
T2 sequence (Q9UBN7 1-1215): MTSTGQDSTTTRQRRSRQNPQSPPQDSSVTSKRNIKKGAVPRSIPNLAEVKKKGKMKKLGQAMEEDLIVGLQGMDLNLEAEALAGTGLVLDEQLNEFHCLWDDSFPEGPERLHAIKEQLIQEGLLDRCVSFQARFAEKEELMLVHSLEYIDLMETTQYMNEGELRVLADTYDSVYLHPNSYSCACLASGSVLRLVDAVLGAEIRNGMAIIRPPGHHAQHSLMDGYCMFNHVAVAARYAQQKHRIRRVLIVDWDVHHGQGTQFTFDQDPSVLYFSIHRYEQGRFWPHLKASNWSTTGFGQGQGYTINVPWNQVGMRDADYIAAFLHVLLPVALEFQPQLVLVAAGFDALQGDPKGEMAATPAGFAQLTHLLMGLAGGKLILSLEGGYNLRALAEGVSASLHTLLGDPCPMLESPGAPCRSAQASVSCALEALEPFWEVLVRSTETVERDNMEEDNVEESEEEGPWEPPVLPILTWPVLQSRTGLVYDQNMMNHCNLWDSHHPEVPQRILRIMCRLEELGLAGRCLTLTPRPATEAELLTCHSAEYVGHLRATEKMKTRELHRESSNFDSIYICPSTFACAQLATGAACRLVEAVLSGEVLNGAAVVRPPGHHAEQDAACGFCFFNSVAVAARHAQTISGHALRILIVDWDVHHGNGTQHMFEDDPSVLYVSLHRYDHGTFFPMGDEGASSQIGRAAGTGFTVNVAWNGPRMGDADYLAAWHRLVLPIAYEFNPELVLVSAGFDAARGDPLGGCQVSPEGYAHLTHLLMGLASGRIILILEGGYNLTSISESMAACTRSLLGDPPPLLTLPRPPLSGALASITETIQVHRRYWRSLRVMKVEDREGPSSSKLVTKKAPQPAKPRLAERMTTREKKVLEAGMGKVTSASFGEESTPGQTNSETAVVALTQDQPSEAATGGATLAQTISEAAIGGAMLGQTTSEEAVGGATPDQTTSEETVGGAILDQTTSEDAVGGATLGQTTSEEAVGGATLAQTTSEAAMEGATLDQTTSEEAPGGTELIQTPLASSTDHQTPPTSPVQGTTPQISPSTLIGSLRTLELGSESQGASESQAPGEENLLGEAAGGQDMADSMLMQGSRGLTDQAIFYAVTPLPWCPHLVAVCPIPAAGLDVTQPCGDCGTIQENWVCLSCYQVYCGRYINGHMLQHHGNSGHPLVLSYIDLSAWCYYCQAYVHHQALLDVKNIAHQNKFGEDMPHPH
Method: Tubulin Acetylation Induction by Novel Compounds: Tubulin Acetylation Cytoblot Assay.
Tubulin acetylation is a PD marker for HDAC6 inhibition. The extent of tubulin acetylation represents the inhibitory effect on HDAC6.
Novel compounds were tested for their ability to inhibit HDAC6 using a cell-based deacetylation assay. Tubulin acetylation was detected by the anti-acetylated tubulin antibody (Sigma) and horse radish peroxidase (HRP) conjugated secondary antibody (KangChen Bio. Tech.). […] 20 μl of diluted compound solution was transferred to the cell culture plate and incubated for 17-18 h. After medium removal and fixation by formaldehyde (3.7% paraformaldehyde in TBS), the cells in the plates were treated with 180 μl of −20° C. MeOH and incubated for 5 min at rt. The cell lysis was incubated with 75 μl of primary anti-acetylated tubulin antibody and secondary HRP conjugated antibody solution (1:750 anti-acetylated tubulin, 1:750 HRP conjugated anti-mouse IgG in antibody dilution buffer not containing sodium azide) for 4 h at 4° C. By adding the HRP substrate, enhanced chemiluminescence (ECL) reagent (GE Healthcare) generated luminescence corresponding to the level of tubulin acetylation. So that 75 μl of ECL was added into the wells and the luminescence from each well was immediately quantified by the plate reader. Based on the luminescence reading, the Tub-Ac EC50s against HDAC6 of the tested compounds were calculated by plotting the curve with XLfit4.0 software. Inhibition %=[signal(sample)−Mean(bottom)]×100/[Mean(top)−Mean(bottom)]

[1] = system: p21 promoter-luciferase construct; assay: p21 reporter gene induction (HeLa cells, p21 promoter-luciferase construct); settings: for p21 RP3: relative gene level of p21 compared to MS275 at 3 μM; for p21 RP10: relative level of p21 compared to MS275 at 10 μM; for p21 RP30: relative level of p21 compared to MS275 at 30 μM;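 for all read-outs here: transfected HeLa cells exposed to compound for 15 h, luciferase luminescence read from lysates, p21 promoter lacks p53 site, proxy for cellular HDAC1/2/3 inhibition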
Method: As a surrogate for in-cell HDAC1/2/3 inhibition, p21 induction was used as a counterscreen to evaluate the selectivity of the compounds in the present invention toward HDAC6 or HDAC8.
The novel compounds of the present invention were tested for their ability to induce p21 gene expression using a reporter gene assay involving HeLa cells transfected with a p21 promoter-luciferase construct. The p21 promoter contained the Sp1/Sp3 binding site for HDAC but not the upstream p53 binding site. Briefly, the day before transfection, HeLa cells were seeded at 11,000 cells/well in a 96-well culture plate and incubated at 37° C. in 5% CO2 overnight. A transfection media was prepared prior to transfection according to the following procedure: (1) 5 μl serum-free DMEM, 0.15 μl Fugene 6 reagent, 40 ng p21-luc, 10 ng GFP were mixed gently and incubated at rt for 30 minutes; (2), then 98 μl DMEM (with 10% FBS, 1% penicillin and streptomycin) was added to the DNA: Fugene 6 reagent complex and mixed gently. For transfection, the medium was removed and replaced with 100 μl/well transfection media which was prepared according to the procedure above. After incubating the cells for 24 hours at 37° C. in 5% CO2, fresh media and test compounds were added to the wells and the cells further incubated for 15 hours at 37° C. in 5% CO2. Cells were lysed by adding 80 μl/well of a cell culture lysis reagent (Promega). 50 μl of each lysate was taken for GFP detection using an excitation wavelength of 486 nm and detection at 527 nm. 100 μl luciferase assay reagent (Promega) was then added to every 20 μl cell lysate for luminometer detection.

[2] = recombinant human HDAC8, substrate Ac-Arg-His-Lys-Lys(ε-acetyl)-AMC, read-out: HDAC8 IC50

EC50 (HDAC6)	IC50 (recombinant human HDAC8; [2])	Compound	IC50 (recombinant human HDAC8; HDAC8 IC50, recombinant human HDAC8, substrate Ac-Arg-His-Lys-Lys(ε-acetyl)-AMC)	p21 RP3 [1]	p21 RP10 [1]	p21 RP30 [1]
1.53 µM	0.74 µM	CC(C)c1cccc(N2CCC(Nc3ccc(C(=O)NO)cc3)C2=O)c1 (stereo not shown) [Example 13, N-Hydroxy-4-[1-(3-isopropyl-phenyl)-2-oxo-pyrrolidin-3-ylamino]-benzamide]	–	0.29	0.19	0.09
1.11 µM	1.21 µM	O=C(NO)c1ccc(NC2CCN(c3ncccn3)C2)cc1 (stereo not shown) [Example 83, N-Hydroxy-4-(1-pyrimidin-2-yl-pyrrolidin-3-ylamino)-benzamide]	–	0.37	0.11	0.08
2.61 µM	3.18 µM	CC(C)c1ccc(N2CCC(Nc3ccc(C(=O)NO)cc3)C2=O)cc1 (stereo not shown) [Example 14, N-Hydroxy-4-[1-(4-isopropyl-phenyl)-2-oxo-pyrrolidin-3-ylamino]-benzamide]	–	0.13	0.07	0.06
1.31 µM	0.51 µM	O=C(NO)c1ccc(NC2CCN(c3cccc4ncccc34)C2=O)cc1 (stereo not shown) [Example 40, N-Hydroxy-4-(2-oxo-1-quinolin-5-yl-pyrrolidin-3-ylamino)-benzamide]	–	0.25	0.26	0.21
2.38 µM	0.75 µM	O=C(NO)c1ccc(NC2CCN(c3c(Cl)cccc3Cl)C2=O)cc1 (stereo not shown) [Example 27, 4-[1-(2,6-Dichloro-phenyl)-2-oxo-pyrrolidin-3-ylamino]-N-hydroxy-benzamide]	–	0.11	0.03	0.04
8.62 µM	0.67 µM	CC(C)(c1ccc(Cl)cc1)N1CCC(Nc2ccc(C(=O)NO)cc2)C1=O (stereo not shown) [Example 50, 4-{1-[1-(4-Chloro-phenyl)-1-methyl-ethyl]-2-oxo-pyrrolidin-3-ylamino}-N-hydroxy-benzamide]	–	0.17	0.17	0.53
4.69 µM	1.01 µM	O=C(NO)c1ccc(NC2CCN(c3cc(F)cc(Cl)c3)C2=O)cc1 (stereo not shown) [Example 21, 4-[1-(3-Chloro-5-fluoro-phenyl)-2-oxo-pyrrolidin-3-ylamino]-N-hydroxy-benzamide]	–	1.56	0.48	0.28
6.31 µM	0.7 µM	C[C@H](c1ccccc1)N1CCC(Nc2ccc(C(=O)NO)cc2)C1=O (stereo partly shown) [Example 44]	–	−0.10	0.03	0.10
8.99 µM	0.91 µM	CC(C)(c1ccc(-c2ccccc2)cc1)N1CCC(Nc2ccc(C(=O)NO)cc2)C1=O (stereo not shown) [Example 51, 4-[1-(1-Biphenyl-4-yl-1-methyl-ethyl)-2-oxo-pyrrolidin-3-ylamino]-N-hydroxy-benzamide]	–	−0.14	0.60	0.38

The next lines start with the compound.

Compound	EC50 (HDAC6)	IC50 (recombinant human HDAC8; [2])	IC50 (recombinant human HDAC8; HDAC8 IC50, recombinant human HDAC8, substrate Ac-Arg-His-Lys-Lys(ε-acetyl)-AMC)	p21 RP3 [1]	p21 RP10 [1]	p21 RP30 [1]
O=C(NO)c1ccc(NC2CCN(c3ccccc3)C2=O)cc1 (stereo not shown) [Example 1]	5.86 µM	–	0.81 µM	0.08	0.08	0.15
C[C@H](c1ccccc1)N1CCC(Nc2ccc(C(=O)NO)cc2)C1=O (stereo partly shown) [Example 45]	8.3 µM	0.65 µM	–	−0.19	0.02	0.13
CC(C)(c1cccc2ccccc12)N1CCC(Nc2ccc(C(=O)NO)cc2)C1=O (stereo not shown) [Example 52, N-Hydroxy-4-[1-(1-methyl-1-naphthalen-1-yl-ethyl)-2-oxo-pyrrolidin-3-ylamino]-benzamide]	2.82 µM	1.05 µM	–	0.14	0.53	0.58
CC(C)(c1ccc2ccccc2c1)N1CCC(Nc2ccc(C(=O)NO)cc2)C1=O (stereo not shown) [Example 53, N-Hydroxy-4-[1-(1-methyl-1-naphthalen-2-yl-ethyl)-2-oxo-pyrrolidin-3-ylamino]-benzamide]	3.32 µM	0.38 µM	–	2.37	1.21	0.13
O=C(NO)c1ccc(NC2CC(=O)N(c3cccc(Cl)c3)C2)cc1 (stereo not shown) [Example 72, 4-[1-(3-Chloro-phenyl)-5-oxo-pyrrolidin-3-ylamino]-N-hydroxy-benzamide]	2.34 µM	1.48 µM	–	0.16	0.14	0.09
O=C(NO)c1ccc(NC2CCN(c3ccc(Cl)cc3)C2)cc1 (stereo not shown) [Example 80, 4-[1-(4-Chloro-phenyl)-pyrrolidin-3-ylamino]-N-hydroxy-benzamide]	4.26 µM	4.65 µM	–	0.37	0.08	−0.05
O=C(NO)c1ccc(NC2CCN(c3ccc(Cl)c(Cl)c3)C2=O)cc1 (stereo not shown) [Example 25, 4-[1-(3,4-Dichloro-phenyl)-2-oxo-pyrrolidin-3-ylamino]-N-hydroxy-benzamide]	4.33 µM	0.97 µM	–	0.00	0.14	−0.03
O=C(NO)c1ccc(NC2CCN(S(=O)(=O)c3ccc(F)cc3)C2)cc1 (stereo not shown) [Example 85, 4-[1-(4-Fluoro-benzenesulfonyl)-pyrrolidin-3-ylamino]-N-hydroxy-benzamide]	7.31 µM	1.12 µM	–	0.35	0.10	0.05

— patent US8404738B2 (Hoffmann-La Roche Inc., priority 2011, dated 2013)
